Measured values: patent US20250171423A1, “PHARMACEUTICAL COMPOUNDS FOR THE TREATMENT OF COMPLEMENT MEDIATED DISORDERS” (Achillion Pharmaceuticals, Inc., priority 2020, published 2025)
Structures can show the parent of a compound that is named as a salt.

These compounds were tested against T1, Human complement C1s enzyme (Homo sapiens, UniProt P09871) (assay: Human C1s Enzyme Assay). Details: human C1s 1.16 nM, 5 min preincubation, substrate Z-L-Lys-SBzl 100 μM, A405; read-out: C1s Protease Activity.
T1 construct: purified from human serum, Complement Technology, Inc; purchased Complement Technology, Inc; host or cells: human serum
T1 sequence (P09871 438-688 limits assumed): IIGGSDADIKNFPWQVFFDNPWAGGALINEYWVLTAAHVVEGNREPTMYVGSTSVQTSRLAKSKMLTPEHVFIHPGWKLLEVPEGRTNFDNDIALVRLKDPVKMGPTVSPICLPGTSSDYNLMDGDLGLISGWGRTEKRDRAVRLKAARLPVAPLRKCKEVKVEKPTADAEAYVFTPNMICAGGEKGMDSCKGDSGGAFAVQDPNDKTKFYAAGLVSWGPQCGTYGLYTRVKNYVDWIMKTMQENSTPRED
T1 sequence (P09871 16-437 partner limits assumed): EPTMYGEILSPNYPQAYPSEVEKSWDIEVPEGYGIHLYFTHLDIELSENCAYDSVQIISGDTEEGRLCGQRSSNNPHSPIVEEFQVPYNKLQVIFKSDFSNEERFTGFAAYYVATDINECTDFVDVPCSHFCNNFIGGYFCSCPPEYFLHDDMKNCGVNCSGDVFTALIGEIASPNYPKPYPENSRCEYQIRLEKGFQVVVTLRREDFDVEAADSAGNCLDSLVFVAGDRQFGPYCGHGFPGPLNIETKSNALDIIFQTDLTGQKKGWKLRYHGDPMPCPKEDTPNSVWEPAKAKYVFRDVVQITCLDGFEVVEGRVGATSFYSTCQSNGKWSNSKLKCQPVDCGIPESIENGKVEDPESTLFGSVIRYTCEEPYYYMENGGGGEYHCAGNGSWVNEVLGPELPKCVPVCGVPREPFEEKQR
Type: biochemical
Outline: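 C1s purified from human serum (1.16 nM final) was preincubated with compound for 5 min at room temperature in 50 mM Tris, 1 M NaCl, pH 7.5. Z-L-Lys-SBzl and DTNB were then added at 100 μM each, and A405 was followed for 30 min. IC50 came from nonlinear regression of reaction rates.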

Row | SMILES | IC50 [nM]
1 | C[C@@]12C[C@@H]1N(C(=O)CNC(=O)c1cccc(Oc3ccccc3)c1)[C@H](C(=O)NCc1cc(C(=N)N)cs1)C2 [Compound 137, (1S,3S,5S)-N-((4-carbamimidoylthiophen-2-yl)methyl)-5-methyl-2-((3-phenoxbenzoyl)glycyl)-2-azabicyclo[3.1.0]hexane-3-carboxamide] | < 100
2 | C[C@@]12C[C@@H]1N(C(=O)CNC(=O)c1ccc(Oc3ccc(S(C)(=N)=O)cc3)cc1)[C@H](C(=O)NCc1cc(C(=N)N)cs1)C2 (stereo partly drawn) [Compound 3, (1S,3S,5S)-N-((4-carbamimidoylthiophen-2-yl)methyl)-5-methyl-2-((4-(4-(S-methyl-sulfonimidoyl)phenoxy)benzoyl)glycyl)-2-azabicyclo[3.1.0]hexane-3-carboxamide] | < 100
3 | COC(=N)c1csc(CNC(=O)[C@@H]2C[C@]3(C)C[C@@H]3N2C(=O)CNC(=O)c2ccc(Oc3ccccc3)cc2)c1 [Compound 32, methyl 5-(((1S,3S,5S)-5-methyl-2-((4-phenoxybenzoyl)glycyl)-2-azabicyclo[3.1.0]-hexane-3-carboxamido)methyl)thiophene-3-carbimidate] | 100 to 1000
4 | COC[C@@]1(F)C[C@@H](C(=O)N[C@H](C)c2cc(C(=N)N)cs2)N(C(=O)CNC(=O)CCCOc2ccccc2)C1 [Compound 149, (2S,4R)-N-((R)-1-(4-carbamimidoylthiophen-2-yl)ethyl)-4-fluoro-4-(methoxymethyl)-1-((4-phenoxybutanoyl)glycyl)pyrrolidine-2-carboxamide] | < 100
5 | Cc1ccccc1[C@@H]1C[C@@H](C(=O)NCc2cc(C(=N)N)cs2)N(C(=O)CNC(=O)CCCOc2ccccc2)C1 [Compound 155, (2S,4S)-N-((4-carbamimidoylthiophen-2-yl)methyl)-1-((4-phenoxybutanoyl)glycyl)-4-(o-tolyl)pyrrolidine-2-carboxamide] | < 100
6 | C[C@H](O)[C@H](O)[C@@H](O)[C@@H](O)CNCC(=O)N1[C@H]2C[C@@]2(C)C[C@H]1C(=O)NCc1cc(C(=N)N)cs1 [Compound 24, (1S,3S,5S)-N-((4-carbamimidoylthiophen-2-yl)methyl)-5-methyl-2-(((2S,3S,4S,5S)-2,3,4,5-tetrahydroxyhexyl)glycyl)-2-azabicyclo[3.1.0]hexane-3-carboxamide hydrochloride] | > 1000
7 | C[C@@]12C[C@@H]1N(C(=O)CNC(=O)c1ccc(Oc3ccccc3)cc1)[C@H](C(=O)NCc1cc(-c3noc(=O)[nH]3)cs1)C2 [Compound 34, (1S,3S,5S)-5-methyl-N-((4-(5-oxo-4,5-dihydro-1,2,4-oxadiazol-3-yl)thiophen-2-yl)methyl)-2-((4-phenoxybenzoyl)glycyl)-2-azabicyclo[3.1.0]hexane-3-carboxamide] | > 1000
8 | N=C(N)c1csc(CNC(=O)[C@@H]2C[C@](F)(CO)CN2C(=O)CNC(=O)CCCOc2ccccc2)c1 [Compound 66, (2S,4R)-N-((4-carbamimidoylthiophen-2-yl)methyl)-4-fluoro-4-(hydroxymethyl)-1-((4-phenoxybutanoyl)glycyl)pyrrolidine-2-carboxamide] | < 100
9 | C[C@@]12C[C@@H]1N(C(=O)CNC(=O)c1ccc(Oc3ccccc3)cc1)[C@H](C(=O)NCc1cc(C(N)=O)cs1)C2 [Compound 8, (1S,3S,5S)-N-((4-carbamoylthiophen-2-yl)methyl)-5-methyl-2-((4-phenoxybenzoyl)-glycyl)-2-azabicyclo[3.1.0]hexane-3-carboxamide] | > 1000
10 | C[C@@]12C[C@@H]1N(C(=O)CNC(=O)c1ccc(Oc3cccnc3)cc1)[C@H](C(=O)NCc1cc(C(=N)N)cs1)C2 [Compound 94, (1S,3S,5S)-N-[(4-carbamimidoylthiophen-2-yl)methyl]-5-methyl-2-(2-{[4-(pyridin-3-yloxy)phenyl]formamido}acetyl)-2-azabicyclo[3.1.0]hexane-3-carboxamide] | < 100
11 | C[C@@]12C[C@@H]1N(C(=O)CNC(=O)c1ccc(Oc3ccccc3)cc1)[C@H](C(=O)NCc1cnc(N)s1)C2 [Compound 102, (1S,3S,5S)-N-[(2-amino-1,3-thiazol-5-yl)methyl]-5-methyl-2-{2-[(4-phenoxyphenyl)-formamido]acetyl}-2-azabicyclo[3.1.0]hexane-3-carboxamide] | 100 to 1000
12 | C[S@](=N)(=O)[C@@H]1C[C@@H](C(=O)NCc2cc(C(=N)N)cs2)N(C(=O)CNC(=O)c2ccc(Oc3ccccc3)cc2)C1 [Compound 68, (2S,4R)-N-((4-carbamimidoylthiophen-2-yl)methyl)-4-((S)-S-methylsulfonimidoyl)-1-((4-phenoxybenzoyl)glycyl)pyrrolidine-2-carboxamide] | < 100
13 | C[C@@]12C[C@@H]1N(C(=O)CNC(=O)c1ccc(Oc3ccc(C(F)(F)F)cn3)cc1)[C@H](C(=O)NCc1cc(C(=N)N)cs1)C2 [Compound 154, (1S,3S,5S)-N-((4-carbamimidoylthiophen-2-yl)methyl)-5-methyl-2-((4-((5-(trifluoromethyl)pyridin-2-yl)oxy)benzoyl)glycyl)-2-azabicyclo[3.1.0]hexane-3-carboxamide] | < 100
14 | [N-]=[N+]=NC[C@@]1(F)C[C@@H](C(=O)NCc2cc(C(=N)N)cs2)N(C(=O)CNC(=O)CCCOc2ccccc2)C1 [Compound 85, (2S,4R)-4-(azidomethyl)-N-((4-carbamimidoylthiophen-2-yl)methyl)-4-fluoro-1-((4-phenoxybutanoyl)glycyl)pyrrolidine-2-carboxamide] | < 100

Next, values leading:

Row | IC50 [nM] | SMILES
15 | > 1000 | C[C@@]12C[C@@H]1N(C(=O)CNC(=O)c1ccc(Oc3ccccc3)cc1)[C@H](C(=O)NCc1cc3ccnc(N)c3s1)C2 [Compound 256, (1S,3S,5S)-N-((7-aminothieno[2,3-c]pyridin-2-yl)methyl)-5-methyl-2-((4-phenoxybenzoyl)glycyl)-2-azabicyclo[3.1.0]hexane-3-carboxamide]
16 | < 100 | N=C(N)c1csc(CNC(=O)[C@@H]2C[C@H](OC(F)(F)F)CN2C(=O)CNC(=O)c2ccc(Oc3ccccc3)cc2)c1 [Compound 244, (2S,4S)-N-((4-carbamimidoylthiophen-2-yl)methyl)-1-((4-phenoxybenzoyl)glycyl)-4-(trifluoromethoxy)pyrrolidine-2-carboxamide]
17 | < 100 | O=C(NCC(=O)N1CC2(C[C@H]1C(=O)NCc1cc(-c3ncc[nH]3)cs1)OCCO2)c1ccc(Oc2ccccc2)cc1 [Compound 259, (S)-N-((4-(1H-imidazol-2-yl)thiophen-2-yl)methyl)-7-((4-phenoxybenzoyl)glycyl)-1,4-dioxa-7-azaspiro[4.4]nonane-8-carboxamide]
18 | < 100 | C[C@@H](NC(=O)[C@@H]1CC2(CN1C(=O)CNC(=O)c1ccccc1)OCCO2)c1cc(C(=N)N)cs1 [Compound 264, (S)-7-(benzoylglycyl)-N-((R)-1-(4-carbamimidoylthiophen-2-yl)ethyl)-1,4-dioxa-7-azaspiro[4.4]nonane-8-carboxamide]
19 | > 1000 | CN/C(=N/C#N)c1csc(CNC(=O)[C@@H]2C[C@]3(C)C[C@@H]3N2C(=O)CNC(=O)c2ccc(Oc3ccccc3)cc2)c1 [Compound 236, (1S,3S,5S)-N-((4-((E)-N′-cyano-N-methylcarbamimidoyl)thiophen-2-yl)methyl)-5-methyl-2-((4-phenoxybenzoyl)glycyl)-2-azabicyclo[3.1.0]hexane-3-carboxamide]
20 | < 100 | C[C@@H](NC(=O)[C@@H]1C[C@](F)(COCCCCCC(=O)O)CN1C(=O)CNC(=O)c1ccc(Oc2ccccc2)cc1)c1cc(C(=N)N)cs1 [Compound 199, 6-(((3R,5S)-5-(((R)-1-(4-carbamimidoylthiophen-2-yl)ethyl)carbamoyl)-3-fluoro-1-((4-phenoxybenzoyl)glycyl)pyrrolidin-3-yl)methoxy)hexanoic acid]
21 | < 100 | N=C(N)c1csc(CNC(=O)[C@@H]2C[C@@]3(CCO3)CN2C(=O)CNC(=O)c2ccc(Oc3ccccc3)cc2)c1 [Compound 194, (4R,7S)-N-((4-carbamimidoylthiophen-2-yl)methyl)-6-((4-phenoxybenzoyl)glycyl)-1-oxa-6-azaspiro[3.4]octane-7-carboxamide]
22 | < 100 | C[C@@]12C[C@@H]1N(C(=O)CNC(=O)CCCOc1cccc3ccccc13)[C@H](C(=O)NCc1cc(C(=N)N)cs1)C2 [Compound 207, (1S,3S,5S)-N-((4-carbamimidoylthiophen-2-yl)methyl)-5-methyl-2-((4-(naphthalen-1-yloxy)butanoyl)glycyl)-2-azabicyclo[3.1.0]hexane-3-carboxamide]
23 | < 100 | C[C@@H](NC(=O)[C@@H]1C[C@]2(COCCCCCC(=O)O)C[C@@H]2N1C(=O)CNC(=O)CCCOc1ccccc1)c1cc(C(=N)N)cs1 [Compound 169, 6-(((1S,3S,5R)-3-(((R)-1-(4-carbamimidoylthiophen-2-yl)ethyl)carbamoyl)-2-((4-phenoxybutanoyl)glycyl)-2-azabicyclo[3.1.0]hexan-5-yl)methoxy)hexanoic acid]
